Test results: patent publication US20230406885A1, “CYCLIC PEPTIDES FOR TRAPPING INTERLEUKIN-1 BETA” (MERCK SHARP & DOHME LLC, priority 2022, published 2023)
*1 amine or outer side, *2 acyl side, *3 side chain or, on linkers, in order; H or OH if unused. Where a SMILES comes first, the peptide text is derived from it. [ ]: non-standard residue; d: D form. Phe(4-(4-Ac-piperazinyl)) = CC(=O)N1CCN(c2ccc(C[C@H](N)C(=O)O)cc2)CC1; Trp(4-Cl)(βS-Me) = C[C@@H](c1c[nH]c2cccc(Cl)c12)[C@H](N)C(=O)O; Bip(4'-COOH) = N[C@@H](Cc1ccc(-c2ccc(C(=O)O)cc2)cc1)C(=O)O; X1 = CC(=O)N1CCN(c2ccc(C[C@H](N[*:1])C(=O)[*:2])cn2)CC1; 1Nal(3S-Me) = C[C@@H](c1cccc2ccccc12)[C@H](N)C(=O)O; Phe(4-COOH) = N[C@@H](Cc1ccc(C(=O)O)cc1)C(=O)O; Trp(7-aza) = N[C@@H](Cc1c[nH]c2ncccc12)C(=O)O; h3Pal(5-CN) = N#Cc1cncc(CC[C@H](N)C(=O)O)c1; Pro(4R-NH2) = N[C@H]1CN[C@H](C(=O)O)C1; AEF = NCCOc1ccc(C[C@H](N)C(=O)O)cc1; hTyr = N[C@@H](CCc1ccc(O)cc1)C(=O)O; 4Pal = N[C@@H](Cc1ccncc1)C(=O)O; dDab = NCC[C@@H](N)C(=O)O; dNMeA = CN[C@H](C)C(=O)O; Dab = NCC[C@H](N)C(=O)O; Dap = NC[C@H](N)C(=O)O

What follows are molecules tested against T1, Recombinant human IL-1β (Homo sapiens, UniProt P01584) (assay: IL-6 assay in MRC5 cells: inhibition of IL-1β induced IL-6 secretion (AlphaLISA)). Conditions: inhibition of IL-1β induced IL-6 secretion in MRC5 cells; IL-1β pre-incubated 1 hour with compound; read-out: MRC5 IC50.
T1 construct: purchased BioLegend 579404
Type: cell-based
Procedure, shortened: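 IL-1β at 2×EC80 in seeding medium (EMEM, 0.025% BSA) preincubated 1 h at ambient temperature with compound, then 3000 MRC5 cells/well added and incubated overnight at 37 °C, 5% CO2. IL-6 in conditioned medium quantified by AlphaLISA; IC50 from 4-parameter logistic fit.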

T1 sequence (P01584 117-269): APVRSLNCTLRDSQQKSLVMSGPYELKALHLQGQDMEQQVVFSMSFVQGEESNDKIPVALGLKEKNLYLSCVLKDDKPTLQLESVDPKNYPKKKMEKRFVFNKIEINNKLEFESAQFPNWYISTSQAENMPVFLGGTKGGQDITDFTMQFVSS

Compared with `C[C@@H]1C(=O)NCC(=O)N[C@@H](Cc2ccc(-c3ccc(C(=O)O)cc3)cc2)C(=O)N[C@@H](Cc2c[nH]c3ccccc23)C(=O)NCC(=O)N[C@H](CCN)C(=O)N[C@@H](CCc2ccc(O)cc2)C(=O)N[C@@H](Cc2ccc(-c3ccc(C(=O)O)cc3)cc2)C(=O)N[C@@H](Cc2c[nH]c3ccccc23)C(=O)N[C@@H](Cc2ccc(C(=O)O)cc2)C(=O)NCC(=O)N2C[C@H](N)C[C@H]2C(=O)N[C@@H]([C@@H](C)c2c[nH]c3cccc(Cl)c23)C(=O)N[C@@H](CC(=O)O)C(=O)N1C` [Example 54] (cyclo([Bip(4'-COOH)]W[Phe(4-COOH)]G[Pro(4R-NH2)][Trp(4-Cl)(βS-Me)]D[dNMeA]G[Bip(4'-COOH)]WG[dDab][hTyr])), `C[C@@H]1C(=O)NCC(=O)N[C@@H](Cc2ccc(-c3ccc(C(=O)O)cc3)cc2)C(=O)N[C@@H](CCCCN)C(=O)N[C@@H](CO)C(=O)N[C@H](C)C(=O)N[C@@H](CCc2ccc(O)cc2)C(=O)N[C@@H](Cc2ccc(-c3ccc(C(=O)O)cc3)cc2)C(=O)N[C@@H](Cc2c[nH]c3ccccc23)C(=O)N[C@@H](Cc2ccc(C(=O)O)cc2)C(=O)NCC(=O)N2C[C@H](N)C[C@H]2C(=O)N[C@@H]([C@@H](C)c2c[nH]c3cccc(Cl)c23)C(=O)N[C@@H](CC(=O)O)C(=O)N1C` [Example 45] (cyclo([Bip(4'-COOH)]W[Phe(4-COOH)]G[Pro(4R-NH2)][Trp(4-Cl)(βS-Me)]D[dNMeA]G[Bip(4'-COOH)]KS[dA][hTyr])) is 2.5-fold higher in IC50: 69.2 pM for the first, 174 pM for the second. The first is the more potent here.

First: C[C@@H]1C(=O)NCC(=O)N[C@@H](Cc2ccc(-c3ccc(C(=O)O)cc3)cc2)C(=O)N[C@@H](Cc2ccncc2)C(=O)N[C@@H](CO)C(=O)N[C@H](C)C(=O)N[C@@H](CCc2ccc(O)cc2)C(=O)N[C@@H](Cc2ccc(-c3ccc(C(=O)O)cc3)cc2)C(=O)N[C@@H](Cc2c[nH]c3ccccc23)C(=O)N[C@@H](Cc2ccc(C(=O)O)cc2)C(=O)NCC(=O)N2C[C@H](N)C[C@H]2C(=O)N[C@@H]([C@@H](C)c2c[nH]c3cccc(Cl)c23)C(=O)N[C@@H](CC(=O)O)C(=O)N1C [Example 39] (cyclo([Bip(4'-COOH)]W[Phe(4-COOH)]G[Pro(4R-NH2)][Trp(4-Cl)(βS-Me)]D[dNMeA]G[Bip(4'-COOH)][4Pal]S[dA][hTyr]))
Second: CC(=O)N1CCN(c2ccc(C[C@@H]3NC(=O)[C@H](CCc4ccc(O)cc4)NC(=O)[C@@H](C)NC(=O)[C@H](CN)NC(=O)[C@H](Cc4c[nH]c5ccccc45)NC(=O)[C@H](Cc4ccc(-c5ccc(C(=O)O)cc5)cc4)NC(=O)CNC(=O)[C@@H](C)N(C)C(=O)[C@H](CC(=O)O)NC(=O)[C@H]([C@@H](C)c4cccc5ccccc45)NC(=O)[C@@H]4C[C@@H](N)CN4C(=O)CNC(=O)[C@H](Cc4ccc(C(=O)O)cc4)NC(=O)[C@H](Cc4c[nH]c5ccccc45)NC3=O)cn2)CC1 [Example 5] (cyclo([X1]W[Phe(4-COOH)]G[Pro(4R-NH2)][1Nal(3S-Me)]D[dNMeA]G[Bip(4'-COOH)]W[Dap][dA][hTyr]))
The IC50 of the first is 2.9-fold lower: 232 pM for the first, 674 pM for the second.

Work on `CC(=O)NCCOc1ccc(C[C@@H]2NC(=O)[C@H](CCc3ccc(O)cc3)NC(=O)[C@@H](C)NC(=O)[C@H](CC(C)C)NC(=O)[C@H](CCCCN)NC(=O)[C@H](Cc3ccc(-c4ccc(C(=O)O)cc4)cc3)NC(=O)CNC(=O)[C@@H](C)N(C)C(=O)[C@H](CC(=O)O)NC(=O)[C@H]([C@@H](C)c3cccc4ccccc34)NC(=O)[C@@H]3C[C@@H](N)CN3C(=O)CNC(=O)[C@H](Cc3ccc(C(=O)O)cc3)NC(=O)[C@H](Cc3c[nH]c4ccccc34)NC2=O)cc1` [Example 110] (cyclo([AEF](Ac)W[Phe(4-COOH)]G[Pro(4R-NH2)][1Nal(3S-Me)]D[dNMeA]G[Bip(4'-COOH)]KL[dA][hTyr])) yielded an IC50 of 195 pM.

Same assay, conditions: inhibition of IL-1β induced IL-6 secretion in MRC5 cells; read-out: MRC5 IC50

Compared with `CC(=O)NCCOc1ccc(C[C@@H]2NC(=O)[C@H](CCc3ccc(O)cc3)NC(=O)[C@@H](CCN)NC(=O)CNC(=O)[C@H](Cc3c[nH]c4ccccc34)NC(=O)[C@H](Cc3ccc(-c4ccc(C(=O)O)cc4)cc3)NC(=O)CNC(=O)[C@@H](C)N(C)C(=O)[C@H](CC(=O)O)NC(=O)[C@H]([C@@H](C)c3cccc4ccccc34)NC(=O)[C@@H]3C[C@@H](N)CN3C(=O)CNC(=O)[C@H](Cc3ccc(C(=O)O)cc3)NC(=O)[C@H](Cc3c[nH]c4ccccc34)NC2=O)cc1` [Example 123] (cyclo([AEF](Ac)W[Phe(4-COOH)]G[Pro(4R-NH2)][1Nal(3S-Me)]D[dNMeA]G[Bip(4'-COOH)]WG[dDab][hTyr])), `CC(=O)NCCOc1ccc(C[C@@H]2NC(=O)[C@H](CCc3ccc(O)cc3)NC(=O)[C@@H](CCN)NC(=O)CNC(=O)[C@H](Cc3c[nH]c4ncccc34)NC(=O)[C@H](Cc3ccc(-c4ccc(C(=O)O)cc4)cc3)NC(=O)CNC(=O)[C@@H](C)N(C)C(=O)[C@H](CC(=O)O)NC(=O)[C@H]([C@@H](C)c3cccc4ccccc34)NC(=O)[C@@H]3C[C@@H](N)CN3C(=O)CNC(=O)[C@H](Cc3ccc(C(=O)O)cc3)NC(=O)[C@H](Cc3c[nH]c4ccccc34)NC2=O)cc1` [Example 215] (cyclo([AEF](Ac)W[Phe(4-COOH)]G[Pro(4R-NH2)][1Nal(3S-Me)]D[dNMeA]G[Bip(4'-COOH)][Trp(7-aza)]G[dDab][hTyr])) is 1.9-fold lower in IC50: 45.7 pM for the first, 24 pM for the second.

First: CC(=O)NCCOc1ccc(C[C@@H]2NC(=O)[C@H](CCc3ccc(O)cc3)NC(=O)[C@@H](C)NC(=O)[C@H](CCN)NC(=O)[C@H](Cc3c[nH]c4ccccc34)NC(=O)[C@H](Cc3ccc(-c4ccc(C(=O)O)cc4)cc3)NC(=O)CNC(=O)[C@@H](C)N(C)C(=O)[C@H](CC(=O)O)NC(=O)[C@H]([C@@H](C)c3c[nH]c4cccc(Cl)c34)NC(=O)[C@@H]3C[C@@H](N)CN3C(=O)CNC(=O)[C@H](Cc3ccc(C(=O)O)cc3)NC(=O)[C@H](Cc3c[nH]c4ccccc34)NC2=O)cc1 [Example 143] (cyclo([AEF](Ac)W[Phe(4-COOH)]G[Pro(4R-NH2)][Trp(4-Cl)(βS-Me)]D[dNMeA]G[Bip(4'-COOH)]W[Dab][dA][hTyr]))
Second: CC(=O)NCCOc1ccc(C[C@@H]2NC(=O)[C@H](CCc3ccc(O)cc3)NC(=O)[C@@H](C)NC(=O)[C@H](CN)NC(=O)[C@H](Cc3c[nH]c4ccccc34)NC(=O)[C@H](Cc3ccc(-c4ccc(C(=O)O)cc4)cc3)NC(=O)CNC(=O)[C@@H](C)N(C)C(=O)[C@H](CC(=O)O)NC(=O)[C@H]([C@@H](C)c3c[nH]c4cccc(Cl)c34)NC(=O)[C@@H]3C[C@@H](N)CN3C(=O)CNC(=O)[C@H](Cc3ccc(C(=O)O)cc3)NC(=O)[C@H](Cc3c[nH]c4ccccc34)NC2=O)cc1 [Example 145] (cyclo([AEF](Ac)W[Phe(4-COOH)]G[Pro(4R-NH2)][Trp(4-Cl)(βS-Me)]D[dNMeA]G[Bip(4'-COOH)]W[Dap][dA][hTyr]))
The IC50 of the first is 3.1-fold higher: 230 pM for the first, 74.8 pM for the second. The second is the more potent here.

In the case of `CC(=O)NC[C@@H]1NC(=O)[C@H](Cc2ccc(-c3ccc(C(=O)O)cc3)cc2)NC(=O)CNC(=O)[C@@H](C)N(C)C(=O)[C@H](CC(=O)O)NC(=O)[C@H]([C@@H](C)c2cccc3ccccc23)NC(=O)[C@@H]2C[C@@H](N)CN2C(=O)CNC(=O)[C@H](Cc2ccc(C(=O)O)cc2)NC(=O)[C@H](Cc2c[nH]c3ccccc23)NC(=O)[C@H](Cc2ccc(N3CCN(C(C)=O)CC3)cc2)NC(=O)[C@H](CCc2cncc(C#N)c2)NC(=O)[C@@H](C)NC(=O)[C@H](CCCCN)NC1=O` [Example 204] (cyclo([Phe(4-(4-Ac-piperazinyl))]W[Phe(4-COOH)]G[Pro(4R-NH2)][1Nal(3S-Me)]D[dNMeA]G[Bip(4'-COOH)][Dap](Ac)K[dA][h3Pal(5-CN)])), the IC50 is reported as 9 pM.
